Values of other authors as cited in US8455540B2, “Gossypol and apogossypol derivatives, preparation thereof and uses thereof” (Universite du Maine (Le Mans), priority 2007, dated 2013).

Columns and labels:
[1] = test system: proteins of the Bcl-2 family; conditions: compared with gossypol (apogossypol = deformylated gossypol)
various types of cancers = conditions: compared with gossypol (apogossypol = deformylated gossypol)

For `Cc1cc2c(C(C)C)c(O)c(O)cc2c(O)c1-c1c(C)cc2c(C(C)C)c(O)c(O)cc2c1O` [apogossypol], the “activity on proteins of the Bcl-2 family” value [1] is given as “fully retains its activity” and the “activity on various types of cancers” value (various types of cancers) is given as “fully retains its activity”.
